Where “and” joins values, the source holds several entries; their conditions need not be identical. Equal values may be shown once.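 Assay format: 96-well plates, 48-hour exposure. Abbreviation: GI50, concentration required for 50% inhibition of growth. TGI marks complete inhibition of growth.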
How the values were obtained:
Assay in all cases: NCI tumour cell line growth inhibition, 48 h
SW-620 colon = system: SW-620 colon
M19-MEL melanoma = system: M19-MEL melanoma
OVCAR-8 ovarian = system: OVCAR-8 ovarian
IGROV1 ovarian = system: IGROV1 ovarian
SK-MEL-5 melanoma = system: SK-MEL-5 melanoma
KM20L2 colon = system: KM20L2 colon
SK-MEL-28 melanoma = system: SK-MEL-28 melanoma
K-562 leukemia = system: K-562 leukemia
SN12C renal = system: SN12C renal
SF-539 CNS = system: SF-539 CNS
HOP-92 NSCLC = system: HOP-92 NSCLC
HCT-15 colon = system: HCT-15 colon
OVCAR-3 ovarian = system: OVCAR-3 ovarian
CCRF-CEM leukemia = system: CCRF-CEM leukemia
SNB-19 CNS = system: SNB-19 CNS
CAKI-1 renal = system: CAKI-1 renal
LOX IMVI melanoma = system: LOX IMVI melanoma
DLD-1 colon = system: DLD-1 colon
HT29 colon = system: HT29 colon
DMS 273 small cell lung = system: DMS 273 small cell lung
HCC-2998 colon = system: HCC-2998 colon
MOLT-4 leukemia = system: MOLT-4 leukemia
HCT-116 colon = system: HCT-116 colon
LXFL 529 NSCLC = system: LXFL 529 NSCLC
OVCAR-4 ovarian = system: OVCAR-4 ovarian
HOP-62 NSCLC = system: HOP-62 NSCLC
SF-295 CNS = system: SF-295 CNS
HL-60(TB) leukemia = system: HL-60(TB) leukemia
A498 renal = system: A498 renal
TK-10 renal = system: TK-10 renal
786-0 renal = system: 786-0 renal
NCI-H23 lung = system: NCI-H23 lung
SNB-75 CNS = system: SNB-75 CNS
SK-OV-3 ovarian = system: SK-OV-3 ovarian
M14 melanoma = system: M14 melanoma
A549 NSCLC = system: A549 NSCLC
NCI-H226 lung = system: NCI-H226 lung
KM12 colon = system: KM12 colon
UACC-257 melanoma = system: UACC-257 melanoma
ACHN renal = system: ACHN renal
SR leukemia = system: SR leukemia
UO-31 renal = system: UO-31 renal
RXF 393 renal = system: RXF 393 renal
U251 CNS = system: U251 CNS
EKVX NSCLC = system: EKVX NSCLC
RPMI-8226 leukemia = system: RPMI-8226 leukemia
SNB-78 CNS = system: SNB-78 CNS
DMS 114 small cell lung = system: DMS 114 small cell lung
RXF-631 renal = system: RXF-631 renal
HOP-18 NSCLC = system: HOP-18 NSCLC
COLO 205 colon = system: COLO 205 colon
XF 498 CNS = system: XF 498 CNS
SK-MEL-2 melanoma = system: SK-MEL-2 melanoma
MALME-3M melanoma = system: MALME-3M melanoma
OVCAR-5 ovarian = system: OVCAR-5 ovarian
NCI-H460 lung = system: NCI-H460 lung
NCI-H522 lung = system: NCI-H522 lung
SF-268 CNS = system: SF-268 CNS
UACC-62 melanoma = system: UACC-62 melanoma

SMILES: CC(=O)OC1COC(N2CCc3ccccc32)C(OC(C)=O)C1OC(C)=O (stereo not given)
- TGI (SW-620 colon): > 100 µM
- TGI (M19-MEL melanoma): > 100 µM
- TGI (OVCAR-8 ovarian): > 100 µM
- TGI (IGROV1 ovarian): > 100 µM
- TGI (SK-MEL-5 melanoma): > 100 µM
- TGI (KM20L2 colon): > 100 µM
- TGI (SK-MEL-28 melanoma): > 100 µM
- TGI (K-562 leukemia): > 100 µM
- TGI (SN12C renal): > 100 µM
- TGI (SF-539 CNS): > 100 µM
- GI50 (HOP-92 NSCLC): > 100 µM
- TGI (HOP-92 NSCLC): > 100 µM
- TGI (HCT-15 colon): > 100 µM
- TGI (OVCAR-3 ovarian): > 100 µM
- TGI (CCRF-CEM leukemia): > 100 µM
- TGI (SNB-19 CNS): > 100 µM
- TGI (CAKI-1 renal): > 100 µM
- TGI (LOX IMVI melanoma): > 100 µM
- TGI (DLD-1 colon): > 100 µM
- TGI (HT29 colon): > 100 µM
- TGI (DMS 273 small cell lung): > 100 µM
- TGI (HCC-2998 colon): > 100 µM
- TGI (MOLT-4 leukemia): > 100 µM
- TGI (HCT-116 colon): > 100 µM
- TGI (LXFL 529 NSCLC): > 100 µM
- TGI (OVCAR-4 ovarian): > 100 µM
- TGI (HOP-62 NSCLC): > 100 µM
- TGI (SF-295 CNS): > 100 µM
- GI50 (HL-60(TB) leukemia): 89.3 µM and 28.2 µM
- TGI (HL-60(TB) leukemia): > 100 µM
- TGI (A498 renal): > 100 µM
- TGI (TK-10 renal): > 100 µM
- TGI (786-0 renal): > 100 µM
- TGI (NCI-H23 lung): > 100 µM
- GI50 (SNB-75 CNS): > 100 µM
- TGI (SNB-75 CNS): > 100 µM
- TGI (SK-OV-3 ovarian): > 100 µM
- TGI (M14 melanoma): > 100 µM
- TGI (A549 NSCLC): > 100 µM
- TGI (NCI-H226 lung): > 100 µM
- TGI (KM12 colon): > 100 µM
- TGI (UACC-257 melanoma): > 100 µM
- TGI (ACHN renal): > 100 µM
- TGI (SR leukemia): > 100 µM
- TGI (UO-31 renal): > 100 µM
- TGI (RXF 393 renal): > 100 µM
- TGI (U251 CNS): > 100 µM
- TGI (EKVX NSCLC): > 100 µM
- TGI (RPMI-8226 leukemia): > 100 µM
- TGI (SNB-78 CNS): > 100 µM
- TGI (DMS 114 small cell lung): > 100 µM
- TGI (RXF-631 renal): > 100 µM
- TGI (HOP-18 NSCLC): > 100 µM
- TGI (COLO 205 colon): > 100 µM
- TGI (XF 498 CNS): > 100 µM
- TGI (SK-MEL-2 melanoma): > 100 µM
- TGI (MALME-3M melanoma): > 100 µM
- TGI (OVCAR-5 ovarian): > 100 µM
- TGI (NCI-H460 lung): > 100 µM
- TGI (NCI-H522 lung): > 100 µM
- TGI (SF-268 CNS): > 100 µM
- TGI (UACC-62 melanoma): > 100 µM

SMILES: Cc1ccc(NC(=O)OCC(COc2ccc(Cl)cc2)OC(=O)Nc2ccc(C)cc2)cc1 (stereo not given)
- TGI (SW-620 colon): > 100 µM
- TGI (M19-MEL melanoma): > 100 µM
- TGI (OVCAR-8 ovarian): > 100 µM
- TGI (IGROV1 ovarian): > 100 µM
- TGI (SK-MEL-5 melanoma): > 100 µM
- TGI (KM20L2 colon): > 100 µM
- TGI (SK-MEL-28 melanoma): > 100 µM
- TGI (K-562 leukemia): 60.4 µM
- TGI (SN12C renal): > 100 µM
- TGI (SF-539 CNS): 52.3 µM
- TGI (HOP-92 NSCLC): 31 µM
- TGI (HCT-15 colon): > 100 µM
- TGI (OVCAR-3 ovarian): 61.8 µM
- TGI (CCRF-CEM leukemia): > 100 µM
- TGI (SNB-19 CNS): 57.3 µM
- TGI (CAKI-1 renal): 57 µM
- TGI (LOX IMVI melanoma): 96.9 µM
- TGI (DLD-1 colon): > 100 µM
- TGI (HT29 colon): 71.7 µM
- TGI (DMS 273 small cell lung): 66.4 µM
- TGI (HCC-2998 colon): > 100 µM
- TGI (MOLT-4 leukemia): > 100 µM
- TGI (HCT-116 colon): > 100 µM
- TGI (LXFL 529 NSCLC): > 100 µM
- TGI (OVCAR-4 ovarian): 73.6 µM
- TGI (HOP-62 NSCLC): > 100 µM
- TGI (SF-295 CNS): 80.6 µM
- TGI (HL-60(TB) leukemia): 27.9 µM
- TGI (A498 renal): 60.4 µM
- TGI (TK-10 renal): 96.9 µM
- TGI (NCI-H23 lung): > 100 µM
- TGI (SNB-75 CNS): 36.9 µM
- TGI (SK-OV-3 ovarian): > 100 µM
- TGI (M14 melanoma): 63.8 µM
- TGI (A549 NSCLC): > 100 µM
- TGI (NCI-H226 lung): 67.9 µM
- TGI (KM12 colon): > 100 µM
- TGI (UACC-257 melanoma): > 100 µM
- TGI (ACHN renal): > 100 µM
- TGI (SR leukemia): > 100 µM
- TGI (UO-31 renal): > 100 µM
- TGI (RXF 393 renal): 43.1 µM
- TGI (U251 CNS): > 100 µM
- TGI (EKVX NSCLC): > 100 µM
- TGI (RPMI-8226 leukemia): > 100 µM
- TGI (SNB-78 CNS): 82.5 µM
- TGI (DMS 114 small cell lung): 98.8 µM
- TGI (RXF-631 renal): 24.9 µM
- TGI (HOP-18 NSCLC): > 100 µM
- TGI (COLO 205 colon): > 100 µM
- TGI (XF 498 CNS): 86.7 µM
- TGI (SK-MEL-2 melanoma): 58.4 µM
- TGI (MALME-3M melanoma): 54.2 µM
- TGI (OVCAR-5 ovarian): > 100 µM
- TGI (NCI-H460 lung): > 100 µM
- TGI (NCI-H522 lung): > 100 µM
- TGI (SF-268 CNS): > 100 µM
- TGI (UACC-62 melanoma): > 100 µM
